Data reported in patent publication US20230263168A1, “COMBINED FUNGICIDAL PREPARATIONS AND METHODS FOR USING THEREOF” (SAVE FOODS LTD., priority 2020, published 2023).

Tested on: Penecillium Digitatum
Experiment: Example 3, Trials 1-3: decay of inoculated clementine stored at room temp
Assay type: in vivo, Penecillium Digitatum on Clementine
Procedure: Fruits: Clementine; Inoculum: Penecillium Digitatum 10^5; Inoculation: 24 hours prior to treatment.
Storage: Cartons of fruit from all the treatments were stored for several days at room temp to monitor fruit spoilage and treatment efficacy.

Compound | % decay (waste) 12 days at room temp (Trial 1, IMZ 250 ppm, PAA 0, ACIDS 0) | % decay (waste) 9 days at room temp (Trial 2, IMZ 250 ppm, PAA 0, ACIDS 0) | % decay (waste) 9 days at room temp (Trial 2, IMZ 500 ppm, PAA 0, ACIDS 0) | % decay (waste) 9 days at room temp (Trial 3, IMZ 250 ppm, PAA 0, ACIDS 0) | % decay (waste) 9 days at room temp (Trial 3, IMZ 500 ppm, PAA 0, ACIDS 0) | % decay (waste) 9 days at room temp (Trial 3, PAA 150 ppm only)
C=CCOC(Cn1ccnc1)c1ccc(Cl)cc1Cl (stereo not drawn) [IMZ, imazalil] | 55% | 40% | 19% | 35% | 24% | 
CC(=O)OO [PAA, peracetic acid] |  |  |  |  |  | 36%
